Reference: BigSolDB 2.1

CC(C)(C)OC(=O)N1CCC[C@H]1C(=O)O
solubility (mole fraction)
Conditions | 283.15 K | 288.15 K | 293.15 K | 298.15 K | 303.15 K | 313.15 K | 323.15 K
in 2-butanone | 0.0371 | – | 0.0532 | – | 0.0687 | 0.0925 | 0.125
in acetone | 0.0457 | – | 0.06 | – | 0.075 | 0.0965 | 0.129
in acetonitrile | 0.0113 | – | 0.0166 | – | 0.0247 | 0.0379 | 0.054
in dichloromethane | 0.0896 | 0.098 | 0.107 | 0.116 | 0.125 | – | –
in ethanol | 0.0968 | – | 0.111 | – | 0.133 | 0.172 | 0.215
in ethyl acetate | 0.0217 | – | 0.0303 | – | 0.0392 | 0.0494 | 0.0606
in isobutanol | 0.072 | – | 0.0942 | – | 0.12 | 0.143 | 0.166
in isopropanol | 0.0971 | – | 0.114 | – | 0.134 | 0.168 | 0.208
in methanol | 0.115 | – | 0.15 | – | 0.196 | 0.24 | 0.297
in methyl acetate | 0.0252 | – | 0.0339 | – | 0.0436 | 0.055 | 0.0698
in n-butanol | 0.0889 | – | 0.103 | – | 0.126 | 0.149 | 0.178
in n-propanol | 0.0944 | – | 0.109 | – | 0.132 | 0.16 | 0.19
in sec-butanol | 0.0968 | – | 0.127 | – | 0.157 | 0.193 | 0.232
in water | 6.6e-05 | – | 0.000204 | – | 0.000593 | 0.000959 | 0.00144
